{"source": "patent US10017522B2", "about": "“Alpha helix mimetics and methods relating thereto” (PRISM BioLab Co., Ltd., priority 2009, dated 2018)", "tested_on": "Wnt signaling pathway", "experiment": "Reporter gene assay (SuperTOPFLASH luciferase, LiCl stimulated, Hek-293 STF1.1 cells)", "type": "cell-based", "conditions": "Homo sapiens, HEK293; at the concentration of 10 μM; stably transfected cell line Hek-293, STF1.1; 20 mM LiCl medium added, 24 hours; read-out: inhibitory activity determined by reporter gene assay", "method": "Screening for inhibitory action of the Wnt signaling pathway can be carried out according to the following procedure using the stably transfected cell line Hek-293, STF1.1. • Growth Medium: DMEM, 10% FBS, Pen-Strep, supplemented with 400 μg/mL G418 to maintain selection of SuperTOPFLASH driven Luciferase gene • 1. On the day prior to assay, split cells into a white opaque 96-well plate at 20,000 cells per well in 200 μl of complete growth medium • 2. Incubate the plate overnight at 37° C., 5% CO2 and allow the cells to attach • 3. Next day, prepare the inhibitors to be tested in complete growth medium, without G418, at 2× the desired final concentration (all conditions are done in duplicates) • 4. Carefully remove the old medium from each well using a multiple pipettor • 5. […] Read plate on the Packard TopCount\nIn the tables, the compounds having inhibitory activity more than 50% at the concentration of 10 microM (μM) determined by reporter gene assay are shown below.\nScreening for inhibitory action of the Wnt signaling pathway was carried out according to the following procedure using the stably transfected cell line Hek-293, STF1.1 • Growth Medium: DMEM, 10% FBS, Pen-Strep, supplemented with 400 μg/mL G418 to maintain selection of SuperTOPFLASH driven Luciferase gene • 1. […] Read plate on the Packard TopCount", "data": [{"smiles": "CN1[C@@H](Cc2ccc(O)cc2)C(=O)N(Cc2cccc3ccccc23)CC2N(C(=O)NCc3ccccc3)CCC(=O)N21", "note": "(stereo partly drawn) [Example I-268, (2S)—N-benzyl-2-(4-hydroxybenzyl)-1-methyl-4-(naphthalen-1-ylmethyl)-3,9-dioxooctahydropyrimido[1,2-b][1,2,5]triazepine-6(7H)-carboxamide]", "values": [{"measurement": "inhibition at 10 µM", "value": "≥ 50", "unit": "%"}]}]}
